Assay results as given in patent US9555137B2, “Uses of labeled HSP90 inhibitors” (Sloan-Kettering Institute for Cancer Research, priority 2011, dated 2017).
Where two headings read alike, the source gives them in different places. Blank lines part the entries; values can stand above or below the compound they belong to.

Experiments:
HSP90 [1] = test: concomitant binding to HSP90 and streptavidin in live K562 cells; type: cell-based; settings: for binding in live K562 cells: 100 μM, 4 h; for HSP90-streptavidin binding with K562 cells: live K562 cells
Excerpt: Having shown that some of the molecules bind concomitantly to HSP90 and streptavidin, we next investigated whether this can similarly be accomplished in live cells.

oncogenic HSP90 [2] = test: PU-FITC binding in primary leukemia samples, blasts relative to normal lymphocytes (flow cytometry); type: cell-based, human; settings: blast crisis CML (bcCML) cells
oncogenic HSP90 [3] = test: PU-FITC binding to EpCAM+ circulating tumor cells relative to leukocytes; type: cell-based, human; settings: patient with HER2+ metastatic breast cancer
Description: FIG. 20. PU-H71-FITC2 accumulation in EpCAM+ Circulating Tumor Cells: PBMC's isolated from whole blood were pre-treated with PU-FITC or controls (PU-FITC9, DMSO, 1 μM/2×10^6 cells/ml, 4 hrs). Cells were then stained with CD45, CD14 and EpCAM antibodies. (A) Cells are gated to exclude dead cells. Viable cells are then gated to determine EpCAM+ vs CD45+ cells. Monocytes are excluded from the analysis by gating the CD45+ cells further as FSC vs. CD14. (B) Histogram plots showing the PU-FITC Median florescence intensity (MFI) of CD45+CD14− cells (blue) and EpCAM+ cells (Red). The drug accumulation in EpCAM+ cells is calculated as the ratio of MFI EpCAM+/MFI CD45+CD14− (circulating tumor cells/leukocytes) after subtracting the values of the DMSO and PU-FITC9 controls (used to control for non-specific and background binding). […]
All experimental blood sampling procedures were performed under the Institutional Review Board-approved protocols at Memorial Sloan Kettering Cancer Center. […] PBMC's are isolated on ficoll gradients, cells are counted and viability determined by trypan blue dye exclusion assay. […] Values are calculated as a ratio of the MFI of Tumor (EpCAM+CD45−CD14−): MFI of EpCAM−CD45+CD14− cells. […] This allows quantitation of the FITC fluorescence intensity in molecules of equivalent soluble fluorochrome (MESF units). […]

MOLM-13 cells = type: cell-based, human
in vivo = settings: 3×Tg AD, mouse, ip, 50 mg/kg, AUC 0 to 48 h
[4] = mouse, in vivo
[5] = [124I]-PU-H71 PET in cancer patients, tumor exposure to PU-H71; type: in vivo, human; settings: human blood circulation
AML cell lines = test: cell killing and apoptosis in AML cell lines (Acridine Orange/Ethidium Bromide); type: cell-based, human; settings: cultured HEL cells
Description: To evaluate the sensitivity spectrum of AML cell lines to HSP90 inhibitors, and to investigate a possible relationship between their genetic background and induction of apoptosis by HSP90 therapy, we made use of a varied cell panel. […]
A ten-fold, in MOLM-13 and M0-91, and two-fold, in Kasumi-1 and SKNO-1, increase in caspase-3,7 activation was observed as early as 24 h. Essentially no live cells were detected for the M0-91 cell line after 48 h of HSP90 inhibitor treatment. […]
Cells were treated for 24, 48 or 72 h with vehicle (DMSO) or inhibitors as indicated. Following staining with Acridine Orange and Ethidium Bromide (1:1 mix of 100 µg/ml), cells were visualized with a fluorescent microscope (Zeiss Axiovert 40 CFL) and counted. Percentage of apoptotic cells was determined from 200-300 cells counted in each group. The percentage of apoptotic cells was calculated as: % Apoptotic cells=(total number of cells with apoptotic nuclei/total number of cells counted)×100.

HSP90 [6] = test: 131I-PU-H71 saturation binding in intact cancer cells; type: cell-based; settings: MDA-MB-468 cells

SMILES: CC(C)N(CCCn1c(Sc2cc3c(cc2I)OCO3)nc2c(N)ncnc21)C(=O)CCCCCNC(=O)CCCCCNC(=O)CCCC[C@@H]1SC[C@@H]2NC(=O)N[C@@H]21 [PU-H71-biotin8]
binding in live K562 cells (HSP90 [1]): able to permeate the cell membrane
HSP90-streptavidin binding with K562 cells (HSP90 [1]): Yes

SMILES: Nc1ncnc2c1nc(Sc1cc3c(cc1I)OCO3)n2CCCNC(=O)CCCCCNC(=O)CCCC[C@@H]1SC[C@@H]2NC(=O)N[C@@H]21 [PU-H71-biotin4]
HSP90-streptavidin binding with K562 cells (HSP90 [1]): No

SMILES: CC(C)N(CCCn1c(Sc2cc3c(cc2I)OCO3)nc2c(N)ncnc21)C(=O)CCCCCNC(=O)CCCC[C@@H]1SC[C@@H]2NC(=O)N[C@@H]21 [PU-H71-blotin7]
HSP90-streptavidin binding with K562 cells (HSP90 [1]): No

SMILES: CC(C)N(CCCn1c(Sc2cc3c(cc2I)OCO3)nc2c(N)ncnc21)C(=S)Nc1ccc(-c2c3ccc(=O)cc-3oc3cc(O)ccc23)c(C(=O)O)c1 [PU-H71-FITC2]
binding relative to normal lymphocytes (oncogenic HSP90 [2]): over 4 fold
binding of circulating tumor cells relative to leukocytes (CD45+CD14−) (oncogenic HSP90 [3]): around 84 fold
viability of MOLM-13 cells (MOLM-13 cells): decrease the viability of MOLM-13 cells

SMILES: Nc1ncnc2c1nc(Sc1cc3c(cc1I)OCO3)n2CCCNC(=O)CCOCCOCCOCCOCCNC(=O)CCCC[C@@H]1SC[C@@H]2NC(=O)N[C@@H]21 [PU-H71-biotin6]
band at approximately 90 kDa in live K562 cells (HSP90 [1]; 0.5 μM): still shows a faint band
binding in live K562 cells (HSP90 [1]): able to permeate the cell membrane
HSP90-streptavidin binding with K562 cells (HSP90 [1]): Yes

AUC(0-t) (in vivo; exposure of the cortex): 17.5 µM·h
AUC(0-t) (in vivo; exposure of the plasma): 7.1 µM·h
cortex AUC relative to plasma AUC [4]: 2.5 times
SMILES: CC(C)(C)CNCCn1c(Sc2cc3c(cc2I)OCO3)nc2c(N)ncnc21 [PU-HZ151]

SMILES: CC(C)NCCCn1c(Sc2cc3c(cc2[124I])OCO3)nc2c(N)ncnc21 [[^124I]-PU-H71]
blood t1/2, rapid clearance [5]: ≈ 20 min
tumor uptake from ROI analysis (4 h): 0.35±0.07 % ID/g
activity in ROI circumscribing the entire mouse (4 h PET): 40-50 % of the administered activity
concentration in tumor relative to bone (4 h p.a.): 9 fold
concentration in tumor relative to brain (4 h p.a.): 40 fold
concentration in tumor relative to heart (4 h p.a.): 10 fold
concentration in tumor relative to muscle (4 h p.a.): 18 fold
concentration in tumor relative to spleen (4 h p.a.): 6 fold
[Atumor] activity concentration in tumor (24 h): ~0.14±0.05 % ID/g
tumor uptake from ROI analysis (24 h): 0.083±0.02 % ID/g
tumor uptake from ROI analysis (48 h): 0.058±0.02 % ID/g
tumor uptake from ROI analysis (72 h): 0.031±0.01 % ID/g
tumor uptake from ROI analysis (100 h): 0.024±0.008 % ID/g
maximum thyroid activity (between 4 and 28 h, no potassium iodide): < 0.4 % of the administered activity
tumor-to-blood activity concentration ratio (by ~12 h postinjection): ≥ 10
time by which cleared from MDA-MB-468 tumors (post-administration): ≤ 150 h

SMILES: CC(C)N(CCCn1c(Sc2cc3c(cc2I)OCO3)nc2c(N)ncnc21)C(=O)CCOCCOCCOCCOCCNC(=O)CCCC[C@@H]1SC[C@@H]2NC(=O)N[C@@H]21 [PU-H71-biotin9]
binding in live K562 cells (HSP90 [1]): able to permeate the cell membrane
HSP90-streptavidin binding with K562 cells (HSP90 [1]): Yes

SMILES: Nc1ncnc2c1nc(Sc1cc3c(cc1I)OCO3)n2CCCNC(=O)CCCC[C@@H]1SC[C@@H]2NC(=O)N[C@@H]21 [PU-H71-biotin3]
HSP90-streptavidin binding with K562 cells (HSP90 [1]): No

SMILES: Nc1ncnc2c1nc(Sc1cc3c(cc1I)OCO3)n2CCCNC(=O)CCCCCNC(=O)CCCCCNC(=O)CCCC[C@@H]1SC[C@@H]2NC(=O)N[C@@H]21 [PU-H71-biotin5]
binding in live K562 cells (HSP90 [1]): able to permeate the cell membrane
HSP90-streptavidin binding with K562 cells (HSP90 [1]): Yes

SMILES: O=c1[nH]c2ccccc2n1C1CCN(Cc2ccc(-c3nc4cc5[nH]cnc5cc4nc3-c3ccccc3)cc2)CC1 [AKTi]
cells committed to undergo apoptosis (AML cell lines): little to no effect

SMILES: CC(C)N(CCCn1c(Sc2cc3c(cc2I)OCO3)nc2c(N)ncnc21)C(=O)CCCC[C@@H]1SC[C@@H]2NC(=O)N[C@@H]21 [PU-H71-biotin2]
HSP90-streptavidin binding with K562 cells (HSP90 [1]): No

SMILES: Nc1ncnc2c1nc(Sc1cc3c(cc1I)OCO3)n2CCCNCCOCCOCCOCCNC(=O)CCCC[C@@H]1SC[C@@H]2NC(=O)N[C@@H]21 [PU-H71-biotin]
HSP90-streptavidin binding with K562 cells (HSP90 [1]): No

SMILES: CC(C)NCCCn1c(Sc2cc3c(cc2[131I])OCO3)nc2c(N)ncnc21 [^131I-PU-H71]
available cellular binding sites bound per cell (HSP90 [6]): ≤ 5.5×10^6
fraction of total cellular HSP90 bound (HSP90 [6]): 26.6-33.5%
